Assay [1] deals with T1, human SPR (Homo sapiens (Human), UniProt P35270). The experiment in a line: Evaluation Example 1: Measurement of human SPR inhibitory activity (sepiapterin absorbance at 420 nm). The assay is classed as biochemical. The following applies: 240 minutes at room temperature. As to the method: Human SPR was prepared as described below. The full-length human SPR (1-261) cDNA was purchased from Eurofins Genomics as an artificially synthesized plasmid containing a DNA sequence optimized for the E. coli expression system so that the sequence of the expressed protein after transcription and translation matches the sequence described in UniprotKB (P35270).
Linearized insert and vector were prepared by PCR using primers designed for amplification of human SPR cDNA and primers designed to contain the thrombin recognition sequence of pET28a (Novagen) and a polyhistidine tag. Cloning was performed using In-Fusion (registered trademark) HD Cloning Kit (TaKaRa) to thereby construct a human SPR expression plasmid. The resultant human SPR expression plasmid was transformed into BL21 (DE3) competent cells (INVITROGEN).
The cells were inoculated into LB medium (1% triptone, 0.5% yeast extract, 1% sodium chloride) containing […] of kanamycin, and then precultured at 37° C. overnight. The precultured cells were inoculated into TB medium (1.2% triptone, 2.4% yeast extract, 9.4% dipotassium hydrogen phosphate, 2.2% potassium dihydrogen phosphate, 0.8% glycerin) containing […] of kanamycin, and the cultured at 37° C., to thereby induce SPR expression with 0.5 mM IPTG for four hours. After the induction, the cells were collected by centrifugation at 6,000 G for 30 minutes and washed with PBS, and the washing was discarded. The washed cells were suspended in buffer solution A (20 mM MES, pH 6.5, 100 mM sodium chloride, 1 mM DTT, 5 mM imidazole). Subsequently, the cell suspension was subjected to ultrasonic treatment to thereby homogenize the cells. The cell homogenate was clarified by centrifugation at 30,000 G for 60 minutes and then filtered with a […]. The filtrate was allowed to pass through HisTrapFF 5 mL column (GE Healthcare). The resin was washed with buffer A, and then gradient elution was performed with buffer B (20 mM MES, pH 6.5, 100 mM sodium chloride, 1 mM DTT, 500 mM imidazole). Thrombin was added to a fraction containing the SPR protein, and the mixture was dialyzed in buffer A overnight, to thereby cleave the tag. After removal of the thrombin by with Benzamidine Sepharose 4 FF (GE Healthcare), the resultant product was allowed to pass through the HisTrapFF 5 mL column, to thereby remove the tag, followed by concentration with Amicon Ultra 10,000 NMWL (Merck Millipore). The concentrate was purified by gel filtration using HiLoad 16/60 Superdex 75 pg (GE Healthcare) equilibrated with buffer C (20 mM MES, pH 6.5, 100 mM sodium chloride, 1 mM DTT). The fraction containing SPR protein was concentrated and then cryopreserved at −80° C.
Human SPR inhibitory activity was measured by using a 384-well low adsorption clear plate (Greiner) with buffer D containing 100 mM Tris-HCl (pH 7.5) (Thermo Fisher Scientific) and 0.01% bovine serum albumin (Sigma). A compound was diluted with DMSO to a concentration of 1 mM, and a 1 μL aliquot of the preparation was diluted with 250 μL of buffer D. The thus-diluted compound was dispensed into the 384-well plate at […]. Thereafter, human SPR was diluted with buffer D to 200 ng/mL and then dispensed into the 384-well plate at 20 μL/well. Subsequently, 40 μL of ultrapure water containing 120 μM Sepiapterin (WuXi AppTec) and 120 μM NADPH (Nacalai) was added to each well, and mixed with a vortex mixer, to thereby initiate the reaction. The reaction mixture was incubated at room temperature for 240 minutes, and the reaction was terminated by addition of 10 μL of ultrapure water containing 2% formic acid (Nacalai). In order to determine the amount of sepiapterin after termination of the reaction, the absorbance at 420 nm was measured by applying the 384-well plate to EnSpire multimode plate reader (Perkin Elmer). The percent inhibition (%) of human SPR by the test compound was calculated by the following formula. […]

Assay [2] has as its target T1, human SPR. Briefly: Evaluation Example 2: Measurement of human SPR inhibitory activity (seven concentrations, sepiapterin absorbance at 420 nm). In kind it is biochemical. In a few lines: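 Reactions ran 240 min at room temperature in 100 mM Tris-HCl pH 7.5 with 0.01% BSA. They contained tag-cleaved, E. coli-expressed full-length human SPR (diluted to 150 ng/mL), seven compound concentrations from 0.14 to 100 nM, and sepiapterin/NADPH added as a 120 μM/160 μM solution. Inhibition was calculated from sepiapterin absorbance at 420 nm.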

[3] abbreviates: Evaluation Example 2, seven concentrations 0.14 nM to 100 nM, 240 minutes at room temperature, read-out: IC50.
Where [4] appears, read: sepiapterin absorbance, Table 41, read-out: concentration at 50% inhibition of human SPR (IC50).

SMILES strings stand for the structures. Structures can show the parent of a compound that is named as a salt.

The values below come from US20240092784A1, “CONDENSED HETEROCYCLIC COMPOUND” (NISSAN CHEMICAL CORPORATION, priority 2020, published 2024).

T1 sequence (P35270 whole entry): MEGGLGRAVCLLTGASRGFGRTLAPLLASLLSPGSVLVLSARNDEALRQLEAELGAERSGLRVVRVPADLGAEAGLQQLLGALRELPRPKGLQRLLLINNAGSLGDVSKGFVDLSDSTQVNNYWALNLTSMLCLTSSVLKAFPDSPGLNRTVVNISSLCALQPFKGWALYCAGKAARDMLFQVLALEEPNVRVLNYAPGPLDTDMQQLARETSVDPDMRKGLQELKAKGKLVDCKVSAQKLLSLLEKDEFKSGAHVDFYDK

In the case of `CC(C)Cn1c(=O)c(C(=O)NC2CC2)c(O)n2ncc(C=O)c12` [Synthesis Example 7, N-Cyclopropyl-3-formyl-7-hydroxy-4-isobutyl-5-oxo-4,5-dihydropyrazolo[1,5-a]pyrimidine-6-carboxamide], the IC50 in assay [1] is < 1000 nM. As to `CC(C)(C)Cn1c(=O)c(C(=O)NC2CC2)c(O)n2nc(Br)cc12` [Synthesis Example 11, 2-Bromo-N-cyclopropyl-7-hydroxy-4-neopentyl-5-oxo-4,5-dihydropyrazolo[1,5-a]pyrimidine-6-carboxamide], the IC50 in assay [1] was < 1000 nM. For the molecule `CC(C)(C)Cn1c(=O)c(C(=O)NC2CC2)c(O)n2ncc(/C=C/C(=O)N3CCOCC3)c12` [Synthesis Example 169, (E)-N-Cyclopropyl-7-hydroxy-3-(3-morpholino-3-oxoprop-1-en-1-yl)-4-neopentyl-5-oxo-4,5-dihydropyrazolo[1,5-a]pyrimidine-6-carboxamide], the IC50 in assay [1] was < 1000 nM.

Turning to `CC(C)Cn1c(=O)c(C(=O)NC2CC2)c(O)n2nc(-c3cccnc3N)cc12` [Synthesis Example 24, 2-(2-Aminopyridin-3-yl)-N-cyclopropyl-7-hydroxy-4-isobutyl-5-oxo-4,5-dihydropyrazolo[1,5-a]pyrimidine-6-carboxamide], the IC50 in assay [1] is < 1000 nM. Turning to `CC(C)(C)Cn1c(=O)c(C(=O)NC2CC2)c(O)n2nc(-c3cc(F)cnc3N)cc12` [Synthesis Example 285, 2-(2-Amino-5-fluoropyridin-3-yl)-N-cyclopropyl-7-hydroxy-4-neopentyl-5-oxo-4,5-dihydropyrazolo[1,5-a]pyrimidine-6-carboxamide], in assay [2] (setting [3]), the IC50 is 3.28 nM. As to `CC(C)(C)Cn1c(=O)c(C(=O)NC2CC2)c(O)n2nc(N)c(/C=C/C3CCOCC3)c12` [Synthesis Example 433, (E)-2-Amino-N-cyclopropyl-7-hydroxy-4-neopentyl-5-oxo-3-(2-(tetrahydro-2H-pyran-4-yl)vinyl)-4,5-dihydropyrazolo[1,5-a]pyrimidine-6-carboxamide hydrochloride], the IC50 in assay [2] (setting [3]) was 0.97 nM. Turning to `CNc1nn2c(O)c(C(=O)NC3CC3)c(=O)n(CC(C)C)c2c1/C=C/C(=O)N1[C@@H](C)COC[C@@H]1C` [Synthesis Example 432, N-Cyclopropyl-3-((E)-3-((3S,5S)-3,5-dimethylmorpholino)-3-oxoprop-1-en-1-yl)-7-hydroxy-4-isobutyl-2-(methylamino)-5-oxo-4,5-dihydropyrazolo[1,5-a]pyrimidine-6-carboxamide], the IC50 in assay [2] (setting [3]) is 0.66 nM. On to `CC(C)Cn1c(=O)c(C(=O)NC2CC2)c(O)n2ncc(/C=C/C(=O)N3CCOC[C@H]3C)c12` [compound 494, (R,E)-N-Cyclopropyl-7-hydroxy-4-isobutyl-3-(3-(3-methylmorpholino)-3-oxoprop-1-en-1-yl)-5-oxo-4,5-dihydropyrazolo[1,5-a]pyrimidine-6-carboxamide], for which, in assay [2] (setting [3]), the IC50 was 0.73 nM. In the case of `CCCc1cnc(Nc2cc3n(CC(C)(C)C)c(=O)c(C(=O)NC4CC4)c(O)n3n2)cn1` [Synthesis Example 336, N-Cyclopropyl-7-hydroxy-4-neopentyl-5-oxo-2-((5-propylpyrazin-2-yl)amino)-4,5-dihydropyrazolo[1,5-a]pyrimidine-6-carboxamide], the IC50 in assay [2] (setting [3]) came to 7.13 nM. For `CN(CC#N)C(=O)c1cnc(Nc2cc3n(CC(C)(C)C)c(=O)c(C(=O)NC4CC4)c(O)n3n2)cn1` [Synthesis Example 358, 2-((5-((Cyanomethyl)(methyl)carbamoyl)pyrazin-2-yl)amino)-N-cyclopropyl-7-hydroxy-4-neopentyl-5-oxo-4,5-dihydropyrazolo[1,5-a]pyrimidine-6-carboxamide], the IC50 in assay [2] (setting [3]) came to 0.87 nM. `CC(C)Cn1c(=O)c(C(=O)NC2CC2)c(O)n2ncc(/C=C/C(C)(C)O)c12` [Synthesis Example 265, (E)-N-Cyclopropyl-7-hydroxy-3-(3-hydroxy-3-methylbut-1-en-1-yl)-4-isobutyl-5-oxo-4,5-dihydropyrazolo[1,5-a]pyrimidine-6-carboxamide]: in assay [2] (setting [3]), the IC50 is 0.68 nM.

On to `CC(C)Cn1c(=O)c(C(=O)NC2CC2)c(O)n2ncc(/C=C/C(=O)N3CCCCCO3)c12` [compound 543, (E)-3-(3-(1,2-Oxazepan-2-yl)-3-oxoprop-1-en-1-yl)-N-cyclopropyl-7-hydroxy-4-isobutyl-5-oxo-4,5-dihydropyrazolo[1,5-a]pyrimidine-6-carboxamide], for which the IC50 in assay [2] (setting [3]) stood at 0.97 nM. `Cc1nn2c(O)c(C(=O)NC3CC3)c(=O)n(CC(C)C)c2c1/C=C/C(=O)N1CCOC[C@@H]1C` [compound 568, (S,E)-N-Cyclopropyl-7-hydroxy-4-isobutyl-2-methyl-3-(3-(3-methylmorpholino)-3-oxoprop-1-en-1-yl)-5-oxo-4,5-dihydropyrazolo[1,5-a]pyrimidine-6-carboxamide]: in assay [2] (setting [3]), the IC50 was found to be 0.68 nM.

As for `Cc1nn2c(O)c(C(=O)NC3CC3)c(=O)n(CC(C)C)c2c1/C=C/C(=O)N1CCOCC12CC2` [Synthesis Example 706, (E)-N-Cyclopropyl-7-hydroxy-4-isobutyl-2-methyl-5-oxo-3-(3-oxo-3-(7-oxa-4-azaspiro[2.5]octan-4-yl)prop-1-en-1-yl)-4,5-dihydropyrazolo[1,5-a]pyrimidine-6-carboxamide], the IC50 in assay [2] (setting [4]) came to 0.82 nM. In the case of `CC(C)(C)Cn1c(=O)c(C(=O)NC2CC2)c(O)n2nc(Nc3ncco3)cc12` [Synthesis Example 361, N-Cyclopropyl-7-hydroxy-4-neopentyl-2-(oxazol-2-ylamino)-5-oxo-4,5-dihydropyrazolo[1,5-a]pyrimidine-6-carboxamide], the IC50 in assay [2] (setting [3]) worked out at 1.42 nM. On to `CC(C)Cn1c(=O)c(C(=O)NC2CC2)c(O)n2ncc(/C=C/C(=O)N3CCc4cc(Br)ccc43)c12` [Synthesis Example 735, (E)-3-(3-(5-Bromoindolin-1-yl)-3-oxoprop-1-en-1-yl)-N-cyclopropyl-7-hydroxy-4-isobutyl-5-oxo-4,5-dihydropyrazolo[1,5-a]pyrimidine-6-carboxamide], for which the IC50 in assay [2] (setting [4]) was determined as 7.3 nM. `CC(C)Cn1c(=O)c(C(=O)NC2CC2)c(O)n2ncc(/C=C/C(=O)N3[C@H](C)COC[C@H]3C)c12` [compound 556, N-Cyclopropyl-3-((E)-3-((3R,5R)-3,5-dimethylmorpholino)-3-oxoprop-1-en-1-yl)-7-hydroxy-4-isobutyl-5-oxo-4,5-dihydropyrazolo[1,5-a]pyrimidine-6-carboxamide]: in assay [2] (setting [3]), the IC50 came out at 0.62 nM. Take `Cc1nn2c(O)c(C(=O)NC3CC3)c(=O)n(CC(C)C)c2c1/C=C/C(=O)N1CCN(CC2CC(F)(F)C2)C[C@@H]1C` [Synthesis Example 703, (S,E)-N-Cyclopropyl-3-(3-(4-((3,3-difluorocyclobutyl)methyl)-2-methylpiperazin-1-yl)-3-oxoprop-1-en-1-yl)-7-hydroxy-4-isobutyl-2-methyl-5-oxo-4,5-dihydropyrazolo[1,5-a]pyrimidine-6-carboxamide]: the IC50 in assay [2] (setting [4]) worked out at 1.44 nM. For the molecule `CC(C)Cn1c(=O)c(C(=O)NC2CC2)c(O)n2ncc(/C=C/C(=O)N3CCC[C@H]3C)c12` [compound 536, (R,E)-N-Cyclopropyl-7-hydroxy-4-isobutyl-3-(3-(2-methylpyrrolidine-1-yl)-3-oxoprop-1-en-1-yl)-5-oxo-4,5-dihydropyrazolo[1,5-a]pyrimidine-6-carboxamide], the IC50 in assay [2] (setting [3]) came to 0.92 nM.
